From patent US7018836B1, “P-TEFb compositions, methods and screening assays” (priority 1996, dated 2006)

Tests used:
[1] = test system: DRB-sensitive runoff transcription in HeLa nuclear extract (P-TEFb-like activity); assay: Pulse-chase transcription in HeLa nuclear extract; format: biochemical, human
Procedure: A pulse-chase protocol was used in which the template DNA was preincubated with the extract, 20 mM HEPES, pH 7.6 and 10 mM MgCl2 for 20 min at 30° C. Nucleotides, including [α-^32P]CTP were added to start the pulse; 2 min later, excess cold CTP was added to initiate the chase. Reactions were stopped after the indicated chase times. During the pulse, 10 μl reaction mixtures contained the following: 20 mM HEPES (pH 7.6), 10 mM MgCl2, 600 μM each GTP, UTP and ATP, 5 μCi of [α-^32P]CTP (˜1 μM CTP), 66 mM KCl, 10–40 μg/ml DNA template, and 3 μl of HeLa nuclear extract. For the chase, unlabeled CTP was added to bring the total concentration of CTP to 1.2 mM and the final reaction volume to 12 μl. Reaction mixtures containing 250 mM KCl, were supplemented with KCl at the beginning of the chase. Drosophila P-TEFb was added to the preincubation mixture where indicated. Reactions were stopped by adding 200 μl of stop solution (1% Sarkosyl, 50 mM Tris, pH 8.0, 50 mM EDTA, 100 mM NaCl and 100 μg/ml tRNA). The reaction mixtures were phenol extracted and the nucleic acids were ethanol precipitated, washed with 70% ethanol, dried and analyzed by gel electrophoresis.
For polyacrylamide gel electrophoresis, samples were resuspended in […] of 0.25×TBE (1×TBE contains 89 mM Tris base, 89 mM Boric acid and 2 mM EDTA) and 8 M urea, heated for 3 min at 85° C. and analyzed in 6% acrylamide-8 M urea-1×TBE gels. Denaturing agarose gel electrophoresis was performed by resuspending samples in 50% formamide-2.2 M formaldehyde-1× morpholinepropanesulfonic acid (MOPS) buffer (20 mM MOPS, pH 7.0; 5 mM sodium acetate, 1 mM EDTA) and heating the mixture at 60° C. for 5 min. Samples were resolved in a 2% agarose gel containing 2.2 M formaldehyde and IX MOPS buffer.

Drosophila P-TEFb = format: biochemical; settings: for inhibition of P-TEFb CTD kinase at higher ATP: 100 μM ATP
Procedure: 0.4 μl of purified RNA polymerase II and various protein samples were mixed in 18 μl of 55 mM HMK. The reaction was then initiated by the addition of 2 μl of a solution containing 2 μCi of [γ-^32P]ATP (ICN) and unlabeled ATP at 10 μM, or only unlabeled ATP at concentrations from 1 to 100 μM or other NTPs or dNTPs at concentrations of 1 to 100 μM. Reactions were incubated for the indicated times at 23° C. and then terminated with SDS loading buffer. Samples were analyzed on a 6–15% SDS polyacrylamide gel which was silver stained, dried and subjected to autoradiography if the assay contained label.

human P-TEFb = target: T1, human P-TEFb (Homo sapiens, UniProt P50750); assay: CTD kinase assay with immunoprecipitated human P-TEFb and Drosophila RNA polymerase II as substrate (FIG. 7B); format: biochemical; settings: for IC50: immunoprecipitated human P-TEFb, 10 μM ATP, read-out: 50% inhibition point, CTD kinase assay
T1 construct: endogenous in cells; host or cells: HeLa nuclear extract (HNE), immunoprecipitate on anti-PITALRE-CT beads
T1 sequence (P50750 whole entry): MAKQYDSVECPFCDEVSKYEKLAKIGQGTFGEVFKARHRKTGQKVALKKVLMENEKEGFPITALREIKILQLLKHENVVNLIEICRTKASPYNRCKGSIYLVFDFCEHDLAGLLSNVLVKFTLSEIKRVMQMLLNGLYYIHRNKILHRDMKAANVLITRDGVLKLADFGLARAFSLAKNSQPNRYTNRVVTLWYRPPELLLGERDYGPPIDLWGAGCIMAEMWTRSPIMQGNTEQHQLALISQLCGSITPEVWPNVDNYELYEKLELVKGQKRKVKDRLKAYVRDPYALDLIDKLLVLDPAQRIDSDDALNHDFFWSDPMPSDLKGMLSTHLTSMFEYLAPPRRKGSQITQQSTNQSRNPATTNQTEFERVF
T1 sequence (O60563 whole entry partner): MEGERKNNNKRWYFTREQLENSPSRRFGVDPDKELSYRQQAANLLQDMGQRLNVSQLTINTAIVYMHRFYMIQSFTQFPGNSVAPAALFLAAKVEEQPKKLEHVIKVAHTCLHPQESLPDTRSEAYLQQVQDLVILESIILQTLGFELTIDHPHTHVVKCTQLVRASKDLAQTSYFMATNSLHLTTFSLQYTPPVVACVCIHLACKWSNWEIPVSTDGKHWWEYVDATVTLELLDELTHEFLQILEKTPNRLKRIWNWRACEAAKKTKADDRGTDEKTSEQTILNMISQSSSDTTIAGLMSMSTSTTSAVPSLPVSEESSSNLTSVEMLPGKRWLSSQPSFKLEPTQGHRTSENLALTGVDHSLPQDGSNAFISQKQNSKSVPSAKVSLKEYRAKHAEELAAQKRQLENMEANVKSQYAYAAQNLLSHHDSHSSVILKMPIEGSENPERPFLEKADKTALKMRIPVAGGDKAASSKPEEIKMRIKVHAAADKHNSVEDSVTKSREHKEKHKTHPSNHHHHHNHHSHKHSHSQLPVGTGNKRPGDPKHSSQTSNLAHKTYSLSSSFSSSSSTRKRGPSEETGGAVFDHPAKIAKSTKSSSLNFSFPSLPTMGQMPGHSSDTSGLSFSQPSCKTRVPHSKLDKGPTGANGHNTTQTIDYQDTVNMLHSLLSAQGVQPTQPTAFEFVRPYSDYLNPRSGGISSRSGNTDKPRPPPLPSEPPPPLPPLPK
Procedure: For every 50 μl of HNE, 10 μl of protein A beads containing 1 μg of bound IgG was used. After depletion of HNE, the antibody-containing beads were extensively washed with 100 times the bead volume of 20 mM HEPES (pH 7.6), 0.5% NP-40, 1% Triton X-100, and 5 mM DTT, 600 mM or indicated concentration of NaCl, and then washed with 25 times the bead volume of 20 mM HEPES (pH 7.6) and 1 mM DTT. The amounts of the washed beads used for the kinase assays and silver staining were the equivalent of 1 μl and 10 μl of HNE, respectively.
CTD kinase assays were performed in a […] reaction containing 20 mM HEPES (pH7.6), 10 μM ATP, 5 μCi [γ-^32P]ATP, 10 ng Drosophila RNA polymerase II, 5 mM MgCl2, and purified Drosophila P-TEFb or immunoprecipitated human P-TEFb. In the reactions containing DRB it was added to 50 μM unless other indicated amounts were used. The reactions were incubated at 30° C. for 1 hour.

TAK = target: T2, TAK (Homo sapiens, UniProt P50750); assay: TAK activity assay (GST-Tat pull-down, CTD3 peptide); format: biochemical; settings: in a manner similar to P-TEFb
T2 construct: Nuclear extract, cytoplasmic extract, or fractions containing partially purified TAK were incubated with glutathione-Sepharose beads containing GST-Tat fusion proteins; endogenous in cells; host or cells: HeLa cell extract or partially purified HeLa cytoplasmic fraction; GST-Tat made in E. coli DE3 (BL21)
T2 sequence (P50750 whole entry, the tested form may be a part): as the sequence (P50750 whole entry) above
T2 sequence (O60563 whole entry, further chain, the tested form may be a part): as the sequence (O60563 whole entry partner) above
T2 sequence (P04608 1-48, further chain): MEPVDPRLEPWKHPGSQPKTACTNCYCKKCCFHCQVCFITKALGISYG
Procedure: Preparation of Tat fusion proteins and the TAK pull-down assay were conducted as described by Herrmann and Rice (Herrmann and Rice, 1993; 1995) with modifications as described. Nuclear extract, cytoplasmic extract, or fractions containing partially purified TAK were incubated with glutathione-Sepharose beads containing GST-Tat fusion proteins for 1 hour at 4° C. with gentle rocking. DE3 (BL21) bacteria containing the GST-Tat expression vectors were obtained from NIH AIDS Research and Reference Reagent Program. For maximum sensitivity, GST-Tat48Δ was used unless otherwise specified. The beads (30 μl, 50% slurry) were washed 6 to 8 times with 1 ml EBCD buffer (50 mM Tris, pH 8.0, 120 mM NaCl, 0.5% Nonidet P-40, and 5 mM DTT) containing 0.03% SDS, then 2 to 4 times with Tat kinase buffer (TKB/Mg: 50 mM Tris-HCl, pH 7.6, 5 mM DTT, 5 mM MnCl2, and 4 mM MgCl2), and brought to 50 μl with TKB/Mg buffer and kinase assay mix. The final reaction contained 2 μM ATP, 10 μCi y-^32P-ATP (ICN, 3000 Ci/mmole), and 50–100 μM of CTD trimer peptide CTD3 ([…], SEQ ID NO:68). Reactions were incubated at 25° C. for 40 minutes, stopped by boiling in Laemmli sample buffer, and resolved by electrophoresis in 15% polyacrylamide: bis-acrylamide (30%:0.15%) gels.

[2] = test system: productive elongation (runoff transcripts) by RNA polymerase II in KcN; format: biochemical, Drosophila; settings: for IC50: read-out: 50% inhibition point of runoff transcription
HeLa cells = settings: added to HeLa cells; cited from earlier work

Compound | DRB concentration at which maximum inhibition occurred [1] | formation of DRB-insensitive processive elongation complexes [1] | fraction of runoff generated that was DRB-sensitive [1] | inhibition of P-TEFb CTD kinase (Drosophila P-TEFb; 10 μM ATP, DRB at 10 μM) | sensitivity of CTD kinase activity of P-TEFb (Drosophila P-TEFb; 20 μM DRB) | inhibition of P-TEFb CTD kinase at higher ATP (Drosophila P-TEFb) | sensitivity of phosphorylation by beads containing PITALRE (human P-TEFb; 50 μM DRB) | IC50 (human P-TEFb) | TAK activity (TAK) | fraction of runoff generated that was DRB-sensitive [2] | IC50 [2] | amount of RNA polymerase IIo (HeLa cells) | IC50 ([1]; HeLa NE, 2 min pulse/45 sec chase, read-out: 50% inhibition point of appearance of runoff) | amount of H-8 required relative to DRB to inhibit the kinase to the same level (Drosophila P-TEFb; 10 μM ATP) | ratio of 50% inhibition points (H-8/DRB), CTD kinase assay (human P-TEFb) | effect on initiation and abortive transcription ([2]; even at concentrations that severely inhibited runoff)
OC[C@H]1O[C@@H](n2cnc3cc(Cl)c(Cl)cc32)[C@H](O)[C@@H]1O [DRB, 5,6-dichloro-1-β-D-ribofuranosylbenzimidazole] | 30 µM | did not inhibit | 60% | strongly inhibited | sensitive | less effective | sensitive | 0.65 µM | inhibited | greater than 95% | 0.7 µM | rapid decrease | – | – | – | –
CNCCNS(=O)(=O)c1cccc2cnccc12 [H-8] | – | – | – | – | – | less effective | – | 16 µM | inhibited | – | 7 µM | rapid decrease | 20 µM | approximately 10 times | 25 | unaffected
